Measured values as given in patent US10300000B2, “Inhibition of melanogenesis by chemically modified curcumins” (The Research Foundation for The State University of New York, priority 2016, dated 2019).

Key:
[1] = system: intracellular ROS in B16F10 cells; assay: Intracellular ROS assay (H2DCFDA) in B16F10 cells; type: cell-based, mouse; conditions: B16F10, 25 μM, 48 hours
Description: Intracellular ROS generation was quantified using 2′,7′-dichlorodihydrofluorescein diacetate (H2DCFDA), a non-fluorescent dye which is trapped intracellularly by cleavage by intracellular esterases after reaction with reactive oxygen species (ROS); only the product, DCF, is fluorescent. For measuring intracellular ROS, B16F10 cells were seeded in 24 well plates at 4×10^4 cells/well. After 24 hours, media was aspirated and PC, THC and CMCs were added to the wells at different concentrations and further incubated for 48 hours. At the end of the incubations, the media was aspirated and cells were washed with PBS. DCFDA (Molecular Probes) was dissolved in DMSO to make 10 mM stock. DCFDA dye working stock (50 μM) was prepared by diluting the stock in DMEM (serum-free, phenol-red free and sodium pyruvate free) media and added to cells and further incubated for 45 minutes at 37° C. The cells were then washed with DPBS and fluorescence was read in bottom read mode, using a fluorescence microplate reader (Gemini EM Spectramax, Molecular Devices) set to excitation and emission wavelengths of 485 nm and 535 nm, respectively. Data was expressed as relative fluorescence % of treated vs. control.

[2] = system: αMSH-stimulated B16F10 cells; assay: Melanin content in αMSH-stimulated B16F10 cells; type: cell-based, mouse; set-up: unit of the concentration uncertain; conditions: 48 hours
Description: (§1) B16F10 cells were seeded at 1×10^5 cells/well in 12-well plates and incubated for 24 hours. The test compounds were then added in presence or absence of αMSH (100 nM), and further incubated for another 48 hours. For evaluation of melanin content, cells were trypsinized, washed in PBS and then 250 μL of 1N NaOH was added and heated to 70° C. to solubilize melanin. The aliquots were then transferred to a 96-well plate and absorbance was read at 475 nm using microplate reader. The absorbance of melanin was normalized by total protein contents and reported as % of control.

[3] = system: B16F10 mouse melanoma cells; type: cell-based; conditions: B16F10, 5 μM, 48 hours, MTS
Description: In order to test the four CMCs (CMC2.14, CMC2.24, CMC2.5 and CMC2.23) alongside PC and THC, for their effects on melanin content, we first screened their nontoxic concentrations using MTS cytotoxicity (Promega CellTiter Aqueous One) assay. MTS is a tetrazolium salt which is reduced to purple colored formazan upon reaction with mitochondrial dehydrogenases. Briefly, B16F10 cells were seeded at 4×10^3 cells/well in 96-well plates for 24 hrs. […] Controls were treated with 0.16% DMSO. At the end of 48 hours, medium was aspirated and replaced by 100 μl of fresh media. MTS (20 μl) was added and incubated for 40 minutes and absorbance read at 490 nm using a Versamax® microplate reader. Cell viability was calculated from the absorbance values relative to control groups and expressed in %.

[4] = system: αMSH-stimulated B16F10 cells; assay: Melanin content in αMSH-stimulated B16F10 cells; type: cell-based, mouse
Description: as §1

COC(=O)C(C(=O)C=Cc1ccc(O)c(OC)c1)C(=O)C=Cc1ccc(O)c(OC)c1 (centres unmarked) [CMC2.5, 4-methoxycarbonyl curcumin]
reduction of intracellular ROS [1]: 23% | reduction of melanin ([2]; αMSH-stimulated B16F10, 20 (unit uncertain) as printed): 36% | reduction of melanin ([2]; αMSH-stimulated B16F10, 25 (unit uncertain) as printed): 42%

COC(=O)C(C(=O)/C=C/c1ccc(O)cc1)C(=O)/C=C/c1ccc(O)cc1 [CMC2.14]
increase of cell proliferation [3]: 26.2%

COc1cc(/C=C/C(=O)C(C(=O)/C=C/c2ccc(O)c(OC)c2)C(=O)Nc2ccccc2)ccc1O [CMC2.23]
lightening of cell pellets [4]: visible lightening
